# Experimental data published in PubChem BioAssay (NCI).
#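 Results reflect a 48-hour exposure of cells in 96-well plates to compound at five concentrations. GI50: concentration for 50% inhibition of growth. TGI: concentration producing complete growth inhibition.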
# Test system: MDA-MB-468 breast
# Assay: inhibition of tumour cell growth, NCI panel, 48 h
SMILES,GI50 [nM],TGI [nM]
Cn1ccnc1C(=O)/C=C/c1ccc(CNC(=O)c2ccc(S(F)(F)(F)(F)F)cc2)cc1,3540,8710
COC1=CC(c2ccc[nH]2)=N/C1=C\c1[nH]c(C)c(CC(=O)OCc2ccccc2)c1C,595,2450
O=CN1N=C(c2cccc(Nc3ccnc4cc(Cl)ccc34)c2)CC1c1ccccc1 (centres undefined),205,656
C=C1C(=O)O[C@H]2[C@H]1CC/C(COC(=O)OC/C1=C/CC[C@@]3(C)O[C@H]3[C@H]3OC(=O)[C@@H](CN(C)C)[C@@H]3CC1)=C\CC[C@@]1(C)O[C@@H]21,1350,4000
COc1ccc(/C=C2\SC(=Nc3ccccc3)NC2=O)cc1,3180,22000
CN(C)CCCC1(c2ccc(F)cc2)OCc2cc(-c3cc4ccccc4s3)ccc21 (centres undefined),1740,3410
CC(C)=CC(=O)N[C@H]1CC[C@]2(C)C3CC[C@]4(C)C(C(C)N(C)C)=CCC4C3CCC2[C@H]1O (some centres undefined),1650,6330
C=C1C(=O)O[C@H]2[C@H]1CC/C(COC(=O)CCCc1c[nH]c3ccccc13)=C\CC[C@@]1(C)O[C@@H]21,1760,4010
C[C@H]1COCCN1c1cc(C2(S(=O)(=O)C3CC3)CC2)nc(-c2ccc(NC(=S)NCCO)cc2)n1,< 10.8,93.6
O=C(Nc1ccc(F)cc1)Nc1ccc(Br)c(C(F)(F)F)c1,2220,9540
CCCCCCCCCCCCCC[n+]1ccc(C(N)=O)cc1,401,2760
CCCCCCCC(=O)SCC/C=C/[C@@H]1CC(=O)NCc2nc(cs2)C2=N[C@@](C)(CS2)C(=O)N[C@@H](C(C)C)C(=O)N1,< 11.9,1210
C=C1SC(=Nc2ccccc2Cl)N(C(=O)c2sc3ccccc3c2Cl)C12CCCCC2,4910,> 100000
O=C(CI)Nc1ccc(O)c2ccccc12,900,2570
CCCCCCCCCCCCCCCCOP(=O)([O-])OCC[N+](C)(C)C,1160,3560
Nc1nc2cc(CC[C@H]3C[C@@H](n4ccc5c(N)ncnc54)[C@H](O)[C@@H]3O)ccc2cc1Br,234,7980
COC(=O)c1c2c(c(C)[n+]([O-])c1C)C(=O)C=C(NCc1cccc(Cl)c1)C2=O,225,732
C=C1C(=O)O[C@H]2[C@H]1CC/C(Cn1cc(-c3ccc(F)cc3)nn1)=C\CC[C@@]1(C)O[C@@H]21,421,1580

SMILES,GI50 [nM],TGI [nM]
C[C@]12CC[C@H]3[C@@H](CC4SC(N)=NC45C/C(=N/NC(N)=O)CC[C@]35C)[C@@H]1CCC2=O (some centres undefined),1600,3170
O=C1C(=O)c2ccccc2C(O)=C1CCCc1ccc(C2CCCCC2)cc1,2200,21500
Clc1ccc2nc(CI)c(CI)nc2c1,4700,19100
COc1ccc(NC(=O)c2sc3nc(C)c(C(=O)/C=C/c4cccc(OC)c4)cc3c2N)cc1,732,2240
Cn1c(-c2ccccc2)c(/C=C/C2=[N+](C)c3ccccc3C2(C)C)c2ccccc21,343,2850
C[C@H]1CNC(=O)c2cnn3ccc(nc23)N[C@H](C)c2cc(F)ccc2O1,1850,14600
O=C(/C=C1\C(=O)N(Cc2ccccc2)c2ccccc21)c1ccc(OCCN2CCCCC2)cc1,1920,3800
C[n+]1c2ccccc2nc2ccccc21,711,2690
COc1ccc(/C(C#N)=C/c2cc(OC)c(OC)c(OC)c2)cc1,19200,> 100000
Cn1nc(C(F)(F)F)c(-c2cc(C(F)(F)F)cc(C(F)(F)F)c2)c1-c1ccc(OCc2ccc(Cl)cc2)cc1O,1430,6360
COC(=O)Nc1nc2ccc(C(=O)c3ccccc3)cc2[nH]1,338,> 100000
N#C/C(=N\Nc1ccccc1)C(=O)Nc1cc(-c2ccccc2)nn1-c1ccccc1,1420,5880
Cc1cc(OCCOCCC(F)(F)P(=O)(O)O)ccc1CCc1cnc2c(N)nc3cc(CCC(=O)O)ccc3c2c1,> 100000,> 100000
CC([C@H]1CC=C2C3CCC4=C[C@@H](N(C)C)CC[C@]4(C)C3CC[C@@]21C)N(C)C (some centres undefined),1420,4720
Cc1ccc2c(c1)C(=O)c1c-2c(OCCCN(C)C)nc2ccccc12,1430,3350
NC(N)=NC(N)=NCCCc1ccco1,81800,196000
CC(=O)O[C@H]1C(=O)[C@@]2(C)[C@H]([C@H](OC(=O)c3ccccc3)[C@]3(O)C[C@H](OC(=O)[C@H](OC(=O)OC[C@H]4COC(C)(C)O4)[C@@H](NC(=O)c4ccccc4)c4ccccc4)C(C)=C1C3(C)C)[C@]1(OC(C)=O)CO[C@@H]1C[C@@H]2O,27.3,
